Columns and labels:
[1] = Cytotoxicity against mouse RAW264.7 cells assessed as survival rate at 2.5 uM after 24 hrs by MTT assay; format: cell-based; settings: read-out: Survival
[2] = Cytotoxicity against mouse RAW264.7 cells assessed as reduction in cell viability after 24 hrs by MTT assay; format: cell-based
RAW264.7 [3] = test: Cytotoxicity against mouse RAW264.7 cells assessed as reduction in cell viability at 5 uM after 24 hrs by MTT assay; format: cell-based; settings: raw264.7, 24 h
RAW264.7 [4] = test: Inhibition of RANKL-induced osteoclast differentiation in mouse RAW264.7 cells assessed as TRAP-positive multinucleated cells level at 2.5 uM incubated with compound in presence of RANKL for 4 days by TRAP staining based light microscopic analysis relative to RANKL alone; format: functional; design: scale not given: the % may be the effect or the level left

For `O=c1oc2ccc(Br)cc2c(=O)n1-c1ccc(F)cc1F`, the viability at 24 h, 2.5 µM [1] was 107%, the CC50 at 24 h [2] was 16 µM and the Activity (RAW264.7 [3]) was “Toxic”. The Activity (RAW264.7 [4]) was 98.3%.

With `O=c1oc2ccc(I)cc2c(=O)n1-c1ccc(Cl)cc1F` the viability at 24 h, 2.5 µM [1] was 117%, the CC50 at 24 h [2] was 8.9 µM and the Activity (RAW264.7 [3]) was “Toxic”. The Activity (RAW264.7 [4]) was 38%.

For `O=C(Nc1ccc(I)cc1F)c1cc(I)ccc1O`, the viability at 24 h, 2.5 µM [1] was 94.2%, the CC50 at 24 h [2] was 6 µM and the Activity (RAW264.7 [3]) was “Toxic”. The Activity (RAW264.7 [4]) was 35.1%.

In the case of `O=C(Nc1ccc(F)cc1F)c1cc(F)ccc1O`, the viability at 24 h, 2.5 µM [1] is reported as 99.2%, the CC50 at 24 h [2] is reported as 15.7 µM and the Activity (RAW264.7 [3]) is reported as “Toxic”. For the same compound, the Activity (RAW264.7 [4]) was 93.7%.

In the case of `O=C(Nc1ccc(Cl)cc1F)c1cc(Br)ccc1O`, the viability at 24 h, 2.5 µM [1] is reported as 103%, the CC50 at 24 h [2] is reported as 9.2 µM and the Activity (RAW264.7 [3]) is reported as “Toxic”. It also gave an Activity (RAW264.7 [4]) of 39.6%.

With `O=C(O)c1cc(Br)ccc1O` the viability at 24 h, 2.5 µM [1] was 101%, the CC50 at 24 h [2] was greater than 40 µM and the Activity (RAW264.7 [3]) was “Toxic”. It also gave an Activity (RAW264.7 [4]) of 96.5%.

With `O=c1oc2ccccc2c(=O)n1-c1ccc(I)cc1F` the viability at 24 h, 2.5 µM [1] was 105%, the CC50 at 24 h [2] was 24.5 µM and the Activity (RAW264.7 [3]) was “Toxic”. It also gave an Activity (RAW264.7 [4]) of 66.7%.

With `O=C1c2cc(F)ccc2Oc2cc([N+](=O)[O-])ccc2N1c1ccc(I)cc1F` the viability at 24 h, 2.5 µM [1] was 95.3%, the CC50 at 24 h [2] was greater than 40 µM and the Activity (RAW264.7 [3]) was “Toxic”. It also gave an Activity (RAW264.7 [4]) of 85.3%.

In the case of `O=C1c2cc(Br)ccc2Oc2cc([N+](=O)[O-])ccc2N1c1ccc(I)cc1F`, the viability at 24 h, 2.5 µM [1] is reported as 93.2%, the CC50 at 24 h [2] is reported as greater than 40 µM and the Activity (RAW264.7 [3]) is reported as “Toxic”. The Activity (RAW264.7 [4]) was 78.1%.

With `O=c1oc2ccc(F)cc2c(=O)n1-c1ccc(Cl)cc1F` the viability at 24 h, 2.5 µM [1] was 107%, the CC50 at 24 h [2] was 7.9 µM and the Activity (RAW264.7 [3]) was “Toxic”. It also gave an Activity (RAW264.7 [4]) of 29.8%.

For `O=C1c2cc(I)ccc2Oc2cc([N+](=O)[O-])ccc2N1c1ccc(Cl)cc1F`, the viability at 24 h, 2.5 µM [1] was 94.9%, the CC50 at 24 h [2] was greater than 40 µM and the Activity (RAW264.7 [3]) was “Toxic”. The Activity (RAW264.7 [4]) was 75.2%.

In the case of `O=C(Nc1ccc(Cl)cc1F)c1cc(F)ccc1O`, the viability at 24 h, 2.5 µM [1] is reported as 99.5%, the CC50 at 24 h [2] is reported as 7.7 µM and the Activity (RAW264.7 [3]) is reported as “Toxic”. The Activity (RAW264.7 [4]) was 27.1%.

For `O=C(Nc1ccc(Cl)cc1F)c1cc(I)ccc1O`, the viability at 24 h, 2.5 µM [1] was 94%, the CC50 at 24 h [2] was 8.5 µM and the Activity (RAW264.7 [3]) was “Toxic”. It also gave an Activity (RAW264.7 [4]) of 26.1%.

For `O=C(O)c1cc(Cl)ccc1O` [5-CHLOROSALICYLIC ACID], the viability at 24 h, 2.5 µM [1] was 113%, the CC50 at 24 h [2] was greater than 40 µM and the Activity (RAW264.7 [3]) was “Toxic”. For the same compound, the Activity (RAW264.7 [4]) was 96.6%.

For `O=c1oc2ccc(Cl)cc2c(=O)n1-c1ccc(Cl)cc1F`, the viability at 24 h, 2.5 µM [1] was 99.4%, the CC50 at 24 h [2] was 6.8 µM and the Activity (RAW264.7 [3]) was “Toxic”. The Activity (RAW264.7 [4]) was 32.8%.

For `O=c1oc2ccc(Cl)cc2c(=O)n1-c1ccc(F)cc1F`, the viability at 24 h, 2.5 µM [1] was 116%, the CC50 at 24 h [2] was 13.4 µM and the Activity (RAW264.7 [3]) was “Toxic”. For the same compound, the Activity (RAW264.7 [4]) was 91.9%.

For `O=c1oc2ccc(I)cc2c(=O)n1-c1ccc(Br)cc1F`, the viability at 24 h, 2.5 µM [1] was 109%, the CC50 at 24 h [2] was 8.3 µM and the Activity (RAW264.7 [3]) was “Toxic”. It also gave an Activity (RAW264.7 [4]) of 58.2%.

In the case of `O=C1c2cc(I)ccc2Oc2cc([N+](=O)[O-])ccc2N1c1ccc(Br)cc1F`, the viability at 24 h, 2.5 µM [1] is reported as 93.4%, the CC50 at 24 h [2] is reported as greater than 40 µM and the Activity (RAW264.7 [3]) is reported as “Toxic”. The Activity (RAW264.7 [4]) was 84.8%.

For `O=c1oc2ccc(F)cc2c(=O)n1-c1ccc(F)cc1F`, the viability at 24 h, 2.5 µM [1] was 103%, the CC50 at 24 h [2] was 19.9 µM and the Activity (RAW264.7 [3]) was “Toxic”. For the same compound, the Activity (RAW264.7 [4]) was 89.7%.

For `O=C1c2cc(Cl)ccc2Oc2cc([N+](=O)[O-])ccc2N1c1ccc(F)cc1F`, the viability at 24 h, 2.5 µM [1] was 99.6%, the CC50 at 24 h [2] was greater than 40 µM and the Activity (RAW264.7 [3]) was “Toxic”. For the same compound, the Activity (RAW264.7 [4]) was 70.6%.

For `O=C(Nc1ccc(F)cc1F)c1cc(I)ccc1O`, the viability at 24 h, 2.5 µM [1] was 103%, the CC50 at 24 h [2] was 13.7 µM and the Activity (RAW264.7 [3]) was “Toxic”. For the same compound, the Activity (RAW264.7 [4]) was 80.5%.

With `O=c1oc2ccc(F)cc2c(=O)n1-c1ccc(Br)cc1F` the viability at 24 h, 2.5 µM [1] was 103%, the CC50 at 24 h [2] was 7.2 µM and the Activity (RAW264.7 [3]) was “Toxic”. The Activity (RAW264.7 [4]) was 25.5%.

With `O=C(O)c1cc(I)ccc1O` the viability at 24 h, 2.5 µM [1] was 98.9%, the CC50 at 24 h [2] was greater than 40 µM and the Activity (RAW264.7 [3]) was “Toxic”. The Activity (RAW264.7 [4]) was 90.5%.
